Our source for the EC50 and IC50 values is patent publication US8598157B2, “5-alkynyl-pyridines” (Boehringer Ingelheim International GmbH, priority 2011, dated 2013).

In one assay the test system is MB453 cells. As to the kind of experiment: alamarBlue MB453 cell assay (antiproliferative/cytotoxicity). It counts as cell-based. To be noted: Homo sapiens; MDA MB 453 breast cancer cell line. The source says:
(§1) The H460, MB453, U87, MCF7 and BT474 alamarBlue cell assays provide EC50 values indicative of the antiproliferative or cytotoxic effects of the compounds to respectively the H460 (human non small cell line cancer), MB-453 (breast cancer cell line), U87 (glioblastoma cell line), MCF7 (breast cancer cell line) and BT474 (breast cancer cell line). As known in the field, antiproliferative or cytotoxic effect against this cell lines would be expected to be indicative of activity in treating lung, breast and brain cancers. See R. Marone R et al. Biochim. Biophys. Acta. 2008 January; 1784(1):159-85. S. Yaguchi et al., J. Natl. Cancer Inst. 2006 Apr. 19; 98(8):545-56.
(§2) Method Type: Antiproliferative/Cytotoxicity
(§3) alamarBlue® is designed to provide a rapid and sensitive measure of cell proliferation and cytotoxicity in various human and animal cell lines. The assay is based on the reduction of alamarBlue in the reducing environment of living (metabolically active) cells. In the presence of added cytotoxic or antiproliferative compounds, the innate metabolic activity ceases.
(§4) AlamarBlue is soluble and stable in culture medium. Measurements are made fluorometrically by exciting at 530-560 nm and measuring emission at 590 nm. In reporting percent alamarBlue reduction by monitoring fluorescence, data are expressed as fluorescence emission intensity units as a function of time of incubation.
(§5) 3. Equipment • 96-well plates, flat bottom (Falcon, Cat. No.: 353072) • 96-well plates, U-shaped (Costar, Cat. No.: 3799) • CO2-Incubator • Microplate Reader, Spectramax Plus, Molecular Devices 4. Typical Procedure • Day 0: Seed 3000 BT-474 cells (IMDM/5% FCS, 1% NEAA, 1% Sodiumpyruvat) in 150 μl medium into a 96-well plate, flat bottom (include mediumblank). Incubate plates at 37° C. in a CO2 incubator overnight. • Day 1: Dilute compounds to a concentration 40 μM->1:3 in medium, 10 dilution steps, in 96-well plates. • Add 50 μl per well of each dilution (total volume per well 200 μl; final conc. of cpds: 10 μM->1:3). If required, test further dilutions. • All concentrations are tested in duplicates. • Controls: Cells w/o cpd. (+50 μl medium/DMSO). • Cells are incubated with compounds for 5-6 days. • Day 6 or 7: Add 25 μl of alamarBlue solution to each well and incubate for 8 hours at 37° C. Measure fluorescence by exciting at 530-560 nm and measuring emission at 590 nm. 5. Evaluation • Subtract average value for medium blank from sample readings • Calculate EC50 using GraphPad Prism (Fifty)

The next assay concerns BT474 cells. In words: alamarBlue BT474 cell assay (antiproliferative/cytotoxicity). The conditions noted are these: BT-474 human breast cancer cell line. It counts as cell-based.
Description: as §1, §2, §3, §4, §5

Another assay concerns the target PI3Kalpha (Homo sapiens (Human), UniProt P42336). As to the kind of experiment: Inhibition of PI3Kalpha-induced PIP-2 phosphorylation (filter-binding assay). The conditions noted are these: 33P-ATP, p85alpha/His-p110alpha, read-out: IC50 PI3Kα. It counts as biochemical. The source says:
Inhibition of PI3Kalpha-Induced PIP-2 Phosphorylation
This PI3Kalpha assay provides an IC50 value indicative of the activity of the compounds to inhibit PI3 kinase alpha activity. Inhibition of PI3 kinase would be expected to be indicative of activity in treating conditions of excessive or anomalous cell proliferation, such as cancers. See also J. A. Engelman, Nature Reviews Cancer, 2009, 9, 550-562; A. Carnero, Expert Opin. Investig. Drugs, 2009, 18, 1265-1277 and P. Liu et al., Nature Reviews Drug Discovery, 2009, 8, 627-64.
Method Type: Filter-Binding-Assay
Aliquoted in desired amounts and stored at −80° C. Final assay concentration 25 ng/well • Phosphotyrosin PDGFRbeta-peptide H-CGG-pY-[…]-pY-VPMLDM-NH2 was synthesized by Jerini Peptide Technologies (JPT) and used in a final conc. of 1.7 μM (stock 100 μM prepared in Assay buffer with DTT, aliquoted in desired amounts and stored at −80° C.) • Cold ATP (from Sigma; A-7699), 100 μM stock solution in H2O, use 1 μM final concentration in assay • [33P]-ATP, 370 MBq/ml from Amersham (#AH9968), use 0.5 μCi/well (10 mCi/ml) • Clear 96-well plates from Greiner (#655 162) • Filter plates: Perkin Elmer UniFilter GF/B #6005177 • Microscint 0 (from Perkin Elmer, #6013611) 2. Assay Procedure
The substrate-containing lipid vesicles are dissolved to a concentration of 0.637 mg lipid blend/ml assay buffer (with BSA, freshly added) in 50 ml Falcon->keep on ice, followed by ultrasonication (pulse of 15 sec followed by a pause of 10 sec, 4×). Compounds are serially diluted in assay buffer+6% DMSO and […] of each dilution is added per well of a 96-well plate (compounds are tested in duplicates) and mixed with 30 μl of the lipid vesicles containing PDGFR-Peptide ([…]) and PI3K alpha (25 ng/well final). The mixture is then incubated for 20 minutes at room temperature. Subsequently, 20 μl of assay buffer containing […] cold ATP and 0.5 μCi/20 μl 33P-ATP are added. The plates are then incubated at room temperature for 120 minutes (shaking with 300 rpm).
The reaction mix is transferred onto filter plates using “filtermate harvester” from Packard: filter plates are rinsed with PBS, then the reaction mix is filtered onto the filter plate, washed 5 times with PBS and are allowed to dry for 30-60 minutes at 50° C.
The plate bottom is sealed with Perkin Elmer white adhesive foil and 25 μl/well Microscint( ) are added, the top is covered with transparent adhesive foil and the plate is measured with Wallac Trilux 1450 Microbeta Counter.
As positive control serve wells containing vehicle controls (1% DMSO in assay buffer), showing non-inhibited kinase activity (high values). Wells containing assay buffer instead of enzyme can serve as control for background activity (low values).
Calculate IC50 values using the Smiley program (based on GrapPad Prism)

Another assay relates to H460 cells. In words: alamarBlue H460 cell assay (antiproliferative/cytotoxicity). It counts as cell-based. To be noted: NCI-H460; H460 human lung carcinoma cells.
Description: as §1, §2, §3, §4, §5
A general note: The colour change of resazurin is a common sign of viable cells or microbes.

A further assay has as its system U87 cells. As to the kind of experiment: U87 cell assay (antiproliferative/cytotoxicity). It counts as cell-based. The conditions noted are these: U-87MG human glioblastoma cells.
Description: as §1, §2, §3, §4, §5

A further assay has as its system MCF7 cells. In words: alamarBlue MCF7 cell assay (antiproliferative/cytotoxicity). It counts as cell-based. To be noted: MCF7 human breast cancer cell line.
Description: as §1, §2, §3, §4, §5

pEC50, pIC50: −log10 of the molar value.

Sequence of PI3Kalpha (P42336 whole entry): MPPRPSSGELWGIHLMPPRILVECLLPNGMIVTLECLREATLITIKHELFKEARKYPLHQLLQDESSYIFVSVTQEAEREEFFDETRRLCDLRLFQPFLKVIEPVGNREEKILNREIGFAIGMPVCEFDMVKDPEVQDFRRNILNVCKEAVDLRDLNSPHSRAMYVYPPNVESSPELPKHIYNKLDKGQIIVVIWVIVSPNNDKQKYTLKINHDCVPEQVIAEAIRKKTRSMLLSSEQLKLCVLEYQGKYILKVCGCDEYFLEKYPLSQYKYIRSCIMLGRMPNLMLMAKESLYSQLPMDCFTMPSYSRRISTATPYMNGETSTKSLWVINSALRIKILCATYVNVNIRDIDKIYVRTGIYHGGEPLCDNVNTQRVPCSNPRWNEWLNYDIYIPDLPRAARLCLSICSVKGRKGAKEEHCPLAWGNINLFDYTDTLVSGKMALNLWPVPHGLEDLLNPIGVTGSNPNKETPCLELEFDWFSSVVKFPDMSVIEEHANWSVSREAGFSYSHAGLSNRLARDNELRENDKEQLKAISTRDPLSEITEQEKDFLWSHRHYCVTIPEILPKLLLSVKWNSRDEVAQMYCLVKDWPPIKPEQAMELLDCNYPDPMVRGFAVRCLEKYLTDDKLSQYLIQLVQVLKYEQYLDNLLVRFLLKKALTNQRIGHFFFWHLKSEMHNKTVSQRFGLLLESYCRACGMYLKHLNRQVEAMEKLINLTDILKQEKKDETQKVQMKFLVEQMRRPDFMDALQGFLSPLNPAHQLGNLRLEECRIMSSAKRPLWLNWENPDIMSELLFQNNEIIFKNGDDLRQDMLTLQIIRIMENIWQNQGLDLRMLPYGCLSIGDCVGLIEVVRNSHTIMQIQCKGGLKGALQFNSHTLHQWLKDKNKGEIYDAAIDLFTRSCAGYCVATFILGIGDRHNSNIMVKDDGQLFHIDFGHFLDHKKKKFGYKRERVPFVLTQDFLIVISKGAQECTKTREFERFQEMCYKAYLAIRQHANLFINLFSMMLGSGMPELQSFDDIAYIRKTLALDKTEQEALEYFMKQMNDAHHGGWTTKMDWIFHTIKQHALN

Consider `COc1ncc(C#Cc2c(C)ncnc2N2CCOCC2)cc1NS(=O)(=O)c1cccs1` [Example I-86, N-[2-Methoxy-5-(4-methyl-6-morpholin-4-yl-pyrimidin-5-ylethynyl)-pyridin-3-yl]-thiophene-2-sulfonamide], for which the pEC50 – broadly, −log10 of the EC50, conventionally taken in molar units – in the assay on MB453 cells was 7.85; in the assay on BT474 cells, 7.92; in the assay with H460 cells, 8.00; with U87 cells it was 7.38. Moreover, at PI3Kalpha, the pIC50 (commonly the IC50 on a negative log10 scale, so that one unit is a factor of ten) is 9.41.

Consider `Cc1ncnc(N2CCOCC2)c1C#Cc1cncc(NS(C)(=O)=O)c1` [Example I-24, N-[5-(4-Methyl-6-morpholin-4-yl-pyrimidin-5-ylethynyl)-pyridin-3-yl]-methanesulfonamide], for which the pEC50 in the assay on BT474 cells was 5.63; in the assay on MCF7 cells it was 5.96. Besides, the pIC50 on PI3Kalpha was 8.40.

As to `COCCN(C)c1ncnc(C)c1C#Cc1cnc(C)c(NS(=O)(=O)c2ccccc2)c1` [Example I-71, N-(5-{4-[(2-Methoxy-ethyl)-methyl-amino]-6-methyl-pyrimidin-5-ylethynyl}-2-methyl-pyridin-3-yl)-benzenesulfonamide], the negative logarithm of the EC50 (pEC50) with MB453 cells was 5.68; in the assay on BT474 cells it was 5.82; in the assay on H460 cells it was 5.79; with U87 cells, 5.92. The pIC50 at PI3Kalpha is 8.30.

Take `COc1ncc(C#Cc2c(C)ncnc2N2CCOCC2)cc1NS(=O)(=O)c1ccccc1C(F)(F)F` [Example I-83, 2-Trifluoromethyl-N-[2-methoxy-5-(4-methyl-6-morpholin-4-yl-pyrimidin-5-ylethynyl)-pyridin-3-yl]-benzenesulfonamide]: the pEC50 with MB453 cells is 8.15; with BT474 cells, 8.22; with H460 cells, 8.22; in the assay on U87 cells, 7.74. Besides, the pIC50 on PI3Kalpha is 9.36.

Turning to `COc1ncc(C#Cc2c(C)ncnc2N2CCOCC2)cc1NS(=O)(=O)c1ccccc1OC(F)(F)F` [Example I-82, 2-Trifluoromethoxy-N-[2-methoxy-5-(4-methyl-6-morpholin-4-yl-pyrimidin-5-ylethynyl)-pyridin-3-yl]-benzenesulfonamide], the pEC50 in the assay on MB453 cells was 7.57; in the assay with BT474 cells, 7.60; in the assay on H460 cells, 7.62; with U87 cells it was 7.30. At PI3Kalpha, the pIC50 was 9.30.

Regarding `COC1CCN(c2ncnc(C)c2C#Cc2cnc(C)c(NS(=O)(=O)c3ccccc3)c2)CC1` [Example I-74, N-{5-[4-(4-Methoxy-piperidin-1-yl)-6-methyl-pyrimidin-5-ylethynyl]-2-methyl-pyridin-3-yl}-benzenesulfonamide], the pEC50 in the assay with MB453 cells was 6.01; with BT474 cells, 6.40; in the assay with H460 cells, 6.15; with U87 cells, 6.25. Besides, at PI3Kalpha, the pIC50 is 8.70.

Consider `COc1ncc(C#Cc2c(C)ncnc2N2CCOCC2)cc1NS(=O)(=O)c1ccnn1C` [Example I-87, N-[2-methoxy-5-[2-(4-methyl-6-morpholin-4-ylpyrimidin-5-yl)ethynyl]pyridin-3-yl]-2-methylpyrazole-3-sulfonamide], for which the pEC50 in the assay with MB453 cells was 7.82; in the assay with BT474 cells, 7.70; in the assay with H460 cells, 7.52; in the assay on U87 cells it was 7.27. The pIC50 on PI3Kalpha was 9.35.

As to `COc1ncc(C#Cc2c(C)ncnc2N2CCOCC2)cc1NS(=O)(=O)c1ccc(Cl)cc1` [Example I-84, 4-Chloro-N-[2-methoxy-5-(4-methyl-6-morpholin-4-yl-pyrimidin-5-ylethynyl)-pyridin-3-yl]-benzenesulfonamide], the pEC50 is 7.31 in the assay on MB453 cells, 7.32 in the assay on BT474 cells, 7.39 in the assay on H460 cells and 7.62 in the assay with U87 cells. In addition, at PI3Kalpha, the pIC50 is 9.52.

For the molecule `Cc1ncc(C#Cc2c(C)ncnc2NC(C)C)cc1NS(=O)(=O)c1ccccc1` [Example I-59, N-[5-(4-Isopropylamino-6-methyl-pyrimidin-5-ylethynyl)-2-methyl-pyridin-3-yl]-benzenesulfonamide], the pEC50 with MB453 cells was 5.72; with BT474 cells, 5.30; in the assay on H460 cells, 6.14; in the assay with U87 cells, 6.00. Further, at PI3Kalpha, the pIC50 is 8.22.

Consider `COc1ncc(C#Cc2c(C)ncnc2N2CCOCC2)cc1NS(=O)(=O)c1ccc(C)o1` [Example I-89, N-[2-methoxy-5-[2-(4-methyl-6-morpholin-4-ylpyrimidin-5-yl)ethynyl]pyridin-3-yl]-5-methylfuran-2-sulfonamide], for which the pEC50 in the assay on MB453 cells was 7.42; in the assay with BT474 cells, 7.20; with H460 cells, 7.59; in the assay with U87 cells it was 7.38. Moreover, the pIC50 on PI3Kalpha was 9.28.

Consider `COc1ncc(C#Cc2c(C)ncnc2N2CCOCC2)cc1NS(=O)(=O)c1ccc(Cl)s1` [Example I-85, 5-Chloro-N-[2-methoxy-5-(4-methyl-6-morpholin-4-yl-pyrimidin-5-ylethynyl)-pyridin-3-yl]-thiophene-2-sulfonamide], for which the pEC50 in the assay on MB453 cells is 7.40; in the assay with BT474 cells, 7.47; in the assay on H460 cells, 7.33; in the assay on U87 cells, 7.19. For the same molecule, on PI3Kalpha, the pIC50 is 9.42.

Take `CCc1nc(N)nc(N2CCC(OC)CC2)c1C#Cc1cnc(C)c(NS(C)(=O)=O)c1` [Example I-34, N-{5-[2-Amino-4-ethyl-6-(4-methoxy-piperidin-1-yl)-pyrimidin-5-ylethynyl]-2-methyl-pyridin-3-yl}-methanesulfonamide]: the figures for the pEC50 in the assay with BT474 cells and in the assay with MCF7 cells were 6.36 and 7.13, respectively. Also, on PI3Kalpha, the pIC50 was 8.70.

Take `COc1ncc(C#Cc2c(C)ncnc2N2CCOCC2)cc1NS(C)(=O)=O` [Example I-81, N-[2-methoxy-5-(4-methyl-6-morpholin-4-yl-pyrimidin-5-ylethynyl)-pyridin-3-yl]-methylsulfonamide]: the pEC50 is 6.63 with MB453 cells, 7.12 in the assay with BT474 cells, 6.74 in the assay with H460 cells and 6.29 in the assay on U87 cells. For the same molecule, on PI3Kalpha, the pIC50 is 9.19.
